Experimental data published in patent publication US20090104119A1, “Dendrimer Based Compositions And Methods Of Using The Same” (priority 2004, published 2009).

Legend:
KB cells [1] = assay: Inhibition of cell growth by XTT assay; format: cell-based, human; settings: for inhibition of cell growth, XTT: 1, 2 or 3 days
Method: (§1) Cell culture and treatment.
Evaluation of dendrimer cytotoxicity.
Because the binding of the conjugate to KB cells reaches maximal uptake within 1 h (Quintana et al, 2002. Pharmaceutical Research 19: 1310-1316.), the effect of the G5-FI-FA-MTX on cell growth was initially tested by pre-incubation of cells with the conjugate for 1 h, followed by incubation in a drug-free medium for 5 d. […] When the cells were pre-incubated with dendrimers for 4 h, there was a modest decrease of about 10% in cell growth as determined by XTT assay. The cytotoxicity measurements were therefore done by incubation with the dendrimer for a minimum of 24 h, a pre-incubation time period shown to induce significant cytotoxicity.
The inhibition of cell growth induced by the conjugates was also tested by XTT assay which is based on the conversion of XTT to formazan by the active mitochondria of live cells (See, e.g., Roehm et al, J Immunol Methods 142, 257 (1991)).
As free FA blocks the uptake of the dendrimers as well as rescues cells from MTX-induced cytotoxicity, the effect of pre-incubation of cells with excess FA on the anti-proliferative effect of G5-FITC-FA-MTX was tested. KB cells were exposed to different concentrations of the conjugate or free MTX for 24 h in the absence or presence of 50 μM FA. The incubation medium was removed, the cells were rinsed and incubated with fresh medium for 5 additional days in the absence of the drugs, and the XTT assay was performed (See, e.g., FIG. 24, □, ▪, represents cells treated with MTX; Δ, ▴, represents cells treated with G5-FITC-FA-MTX).
The anti-proliferative effect of the MTX-conjugates was compared to conjugates that lacked either the FA or the FITC molecule. KB cells were incubated with 30 nM of the conjugates (=150 nM effective MTX concentration) for 24 h and the incubation medium was removed. The cells were rinsed and incubated for an additional 5 d in fresh medium in the absence of the drugs, and the XTT assay was performed.

KB cells [2] = assay: Inhibition of cell growth by total cell protein; settings: 150 nM FA with 150 nM MTX, 24 h, then 6 d fresh medium; total cell protein
Method: Cell culture and treatment. KB cells were maintained in folate-free medium containing 10% serum (See, e.g., Quintana et al, Pharm. Res. 19, 1310 (2002)) to provide extracellular FA similar to that found in human serum. Cells were plated in 12-well plates for uptake studies, in 24-well plates for cell growth analysis, and in 96-well plates for XTT assay. Cells were rinsed with FA-free medium containing dialyzed serum and incubated at 37° C. with dendrimer-drug conjugates for the indicated time periods and concentrations. KB cells were also maintained in RPMI medium containing 2 μM FA to obtain cells which express low FAR.
Evaluation of dendrimer cytotoxicity. Cell growth was determined by assay of the total protein in lysates of treated cells using a bicinchoninic acid reagent (PIERCE, and by XTT assay, using a kit from Roche.
Time course and dose dependent inhibition of cell growth. Previous studies have shown that MTX-induced cytotoxicity is detectable in vitro only if the medium is completely deprived of FA (See, e.g., Sobrero & Bertino, Int. J. Cell Cloning 4, 51 (1986)). The effect of the trifunctional dendrimers on cell growth was tested in cells incubated in a FA-deficient medium. Cells were treated with 300 nM conjugates (equivalent of 1500 nM MTX) or 1500 nM free MTX for 1-4 days, and cell proliferation was determined by estimation of cellular protein content. Cells were treated for 2 days with different concentrations of the conjugates or free MTX (the conjugate concentration is given as MTX equivalents, with 5 MTX per dendrimer molecule). KB cells which express high and low FAR were incubated with 30 nM of the dendrimers for 1 hr at 37° C., rinsed, and the fluorescence of cells was determined by flow cytometric analysis (See. e.g., FIG. 21, left panel).
KB cells were treated with 150 or 500 nM MTX in the presence or absence of equimolar concentrations of free FA for 24 h. […] The cells were rinsed to remove the drugs and incubated with fresh medium for an additional 6 d, and total cell protein was determined.

[3] = mouse, in vivo
Description: Recipient animal and tumor model. Immunodeficient, 6- to 8-weekold athymic nude female mice [Sim:(NCr) nu/nu fisol] were purchased from Simonsen Laboratories, Inc. (Gilroy, Calif.). Five- to 6-week-old Fox Chase severe combined immunodeficient (SCID; CB-17/lcrCrl-scidBR) female mice were purchased from the Charles River Laboratories (Wilmington, Mass.) and housed in a specific pathogen-free animal facility at the University of Michigan Medical Center in accordance with the regulations of the University's Committee on the Use and Care of Animals as well as with federal guidelines, including the Principles of Laboratory Animal Care. Animals were fed ad libitum with Laboratory Autoclavable Rodent Diet 5010 (PMI Nutrition International, St. Louis, Mo.). Three weeks before tumor cell injection, the food was changed to a folate-deficient diet (TestDiet, Richmond, Ind.). For urine and feces collection, animals were housed in metabolic rodent cages (Nalgene, Rochester, N.Y.).
Tumor cell line. The KB human cell line, which overexpresses the folate receptor (See, e.g., Turek et al, J Cell Sci 106, 423 (1993)), was purchased from the American Type Tissue Collection (Manassas, Va.) and maintained in vitro at 37° C., 5% CO2 in folate-deficient RPMI 1640 supplemented with penicillin (100 units/mL), streptomycin (100 μg/mL), and 10% heat-inactivated fetal bovine serum. Before injection in the mice, the cells were harvested with trypsin-EDTA solution, washed, and resuspended in PBS. The cell suspension (5×10^6 cells in 0.2 mL) was injected s.c. into one flank of each mouse using a 30-gauge needle. In the biodistribution studies, the tumors were allowed to grow for 2 weeks until reaching ˜0.9 cm^3 in volume. The formula chosen to compute tumor volume was for a standard volume of an ellipsoid, where V= 4/3π (½ length×½ width×½ depth). With an assumption that width equals depth and […], the formula used was V=½×length×width^2. Targeted drug delivery using conjugate injections was started on the fourth day after implantation of the KB cells.
Biodistribution and excretion of tritiated dendrimer. […] Both tritiumlabeled conjugates were delivered at equimolar concentrations of the modified dendrimer. At 5 minutes, 2 hours, 1 day, 4 days, and 7 days postinjection, the animals were euthanized and samples of tumor, heart, lung, liver, spleen, pancreas, kidney, and brain were taken. […] The mice were euthanized at 5 minutes, 1 day, and 4 days following injection, and tissues were harvested as above. Blood was collected at each time point via cardiac puncture. Each group included three to five mice. Urine and feces samples were collected at 2, 4, 8 and 12 hours and 1, 2, 3, and 4 days.
Radioactive tissue samples were prepared as described in Nigavekar et al, Pharm Res 21, 476 (2004). The tritium content was measured in a liquid scintillation counter (LS 6500, Beckman Coulter, Fullerton, Calif.). The values of measured radioactivity were adjusted for the counting efficiency of the instrument and used to derive radioactivity (1 μCi=2.22×10^6 dpm) per sample. These values were then normalized by tissue weight and the specific radioactivity of the conjugates was reported as a percentage of the injected dosage (% ID/g). The excreted radioactivity (dendrimer) via urine and feces was reported as a percentage of the injected dosage (% ID).
Biodistribution of tritiated dendrimers. […] The mice were maintained on a folate-deficient diet for the duration of the experiment to minimize the circulating levels of folic acid (See, e.g., Mathias et al., J Nucl Med 29, 1579 (1998)). […] Mice were evaluated at various time points (5 minutes to 7 days) following i.v. administration of the conjugates.

[4] = test system: KB cells which express a high cell surface FA receptor (FAR); assay: Cellular uptake/binding of dendrimers in high-FAR KB cells, flow cytometry; format: cell-based, human
Method: as §1
(§2) Flow Cytometry and Confocal Microscopy. The standard fluorescence of the dendrimer solutions was quantified using a Beckman spectrofluorimeter. For flow cytometric analysis of the uptake of the targeted polymer, cells were trypsinized and suspended in PBS containing 0.1% bovine serum albumin (PBSB) and analyzed using a Becton Dickinson FACScan analyzer. The FL1-fluorescence of 10,000 cells was measured and the mean fluorescence of gated viable cells was quantified. Confocal microscopic analysis was performed in cells plated on a glass cover-slip, using a Carl Ziess confocal microscope. Fluorescence and differential interference contrast (DIC) images were collected simultaneously using an argon laser, using the appropriate filters for FITC.
The cellular uptake of the dendrimers was measured in KB cells which express a high cell surface FA receptor (FAR). The FA-conjugated dendrimers bound to the cells in a dose-dependent fashion, with 50% binding at 10-15 nM for both the G5-FITC-FA and G5-FITC-FA-MTX, while the control dendrimer G5-FITC was not detected in the KB cells (See, e.g., FIG. 18A). Identical binding curves were obtained for the G5-FITC-FA and G5-FITC-FA-MTX when the fluorescence obtained was normalized for the quenching observed in the standard solutions of the dendrimers (See e.g., FIG. 18B).
(§3) The effect of free FA on the uptake of the dendrimers was tested in KB cells that express both high and low FAR. The binding of the conjugates to the low FAR-expressing KB cells was 30% of that of the high FAR-expressing cells for both the G5-FITC-FA and G5-FITC-FA-MTX (See, for e.g., FIG. 19, left panel). […] The binding and internalization of the dendrimers to KB cells was assessed by confocal microscopy. KB cells were incubated with 250 nM of the indicated dendrimers for 24 hours and confocal images were taken. Conjugates containing the targeting molecule FA internalized into KB cells within 24 h (See, e.g., FIG. 20).

[5] = test system: low FAR-expressing KB cells; assay: Cellular uptake/binding of dendrimers in low-FAR KB cells, flow cytometry; format: cell-based, human
Method: as §1, §2, §3
Time course and dose dependent inhibition of cell growth.

s.c. human KB xenografts = assay: Targeted drug delivery, tumor growth and survival in SCID mice with KB xenografts; format: in vivo, SCID CB-17 mice; settings: first trial, up to 15 injections; cumulative 5.0 mg/kg methotrexate equivalents or equimolar dendrimer
Method: Recipient animal and tumor model.
Delivery of targeted nanoparticle therapeutic. Twice weekly, SCID mice with s.c. KB xenografts, starting on day 4 after tumor implantation, received via the tail vein an injection of either targeted or nontargeted conjugate containing methotrexate, a conjugate without methotrexate, free methotrexate, or saline as a control. The compounds were delivered in a 0.2 mL volume of saline per 20 g of mouse. The single dose of methotrexate delivered each time equaled 0.33 mg/kg. The higher doses of 1.67 and 3.33 mg/kg free methotrexate were also tested. The conjugates were delivered at equimolar concentration of methotrexate calculated based on the number of methotrexate molecules present in a nanoparticle. The conjugate without methotrexate was delivered at equimolar concentration of dendrimer. In the initial trial, six groups of mice with five mice in each group received up to 15 injections. In the follow-up trial, mice received up to 28 injections dependent on their survival. The body weights of the mice were monitored throughout the experiment as an indication of adverse effects of the drug. Histopathology of multiple organs was done at the termination of each trial and each time mouse had to be euthanized due to toxic effects or tumor burden. Tissues from lung, heart, liver, pancreas, spleen, kidney, and tumor were analyzed. Additionally, cells were isolated from tumors, stained with targeted fluorescein-labeled conjugate, and tested for the presence of folic acid receptors using flow cytometer.
Targeted drug delivery to tumor cells through the folate receptor. The efficacy of different doses of conjugates was tested on SCID CB-17 mice bearing s.c. human KB xenografts and was compared with equivalent and higher doses of free methotrexate. Mice were maintained on the folic acid-deficient diet for 3 weeks before injection of the KB tumor cells to achieve circulating levels of folic acid that approach those in human serum and to prevent down-regulation of folate receptors on tumor xenografts (See, Mathias et al., J Nucl Med 29, 1579 (1998)). Six groups of SCID mice with five mice in each group were injected s.c. on one flank with 5×10^6 KB cells in 0.2 mL PBS suspension. The highest total dose of G5-FI-FA-MTX therapeutic used equals 55.0 mg/kg and is equivalent to a 5.0 mg/kg total cumulative dose of free methotrexate (FIG. 29). The therapeutic dose of the conjugate was compared with three cumulative doses of free methotrexate equivalent to 33.3, 21.7, and 5.0 mg/kg accumulated in 10 to 15 injections based on mouse survival. Saline and the conjugate without methotrexate (G5-FI-FA) were used as controls.

[6] = 50 μM FA, 24 h, then 5 days drug-free, XTT

## Nc1nc2ncc(CNc3ccc(C(=O)N[C@@H](CCC(=O)O)C(=O)O)cc3)nc2c(=O)[nH]1 [FA, Folic Acid, reference compound]
KB cells [1]; [6]
  effect of excess free FA on growth inhibition by conjugate or free MTX: blocked growth inhibition
  increase of cell growth above control cells: 20%
KB cells [2]
  reversal of MTX-induced growth-arrest by FA: almost completely reversed

## G5-(Ac)50-(Ac-3H)54 [G5-^3H]
[3]
  amount in feces: very low amounts
  concentration in KB tumor: decreased rapidly
  concentration in liver: decreased rapidly
  time of excretion, primarily through the kidney: ≤ 24 h

## G5-(Ac)50-(Ac-3H)54-(FA)6 [G5-^3H-FA]
[3]
  amount in feces: very low amounts
  concentration in KB tumor: increases over the first 4 days
  concentration in liver: increases over the first 4 days
  cumulative clearance compared with G5-3H: lower
  time of excretion, primarily through the kidney: ≤ 24 h

## G5-(Ac)82-(FITC)5 [G5-FITC]
[4]; control dendrimer without FA
  detection of dendrimer in KB cells: not detected
KB cells [1]
  inhibition of cell growth, XTT: not growth-inhibitory

## G5-(Ac)82-(FITC)5-(FA)5 [G5-FITC-FA]
[4]; 50 μM FA, dendrimer 30 nM
  effect of free FA on uptake, high-FAR expressing cells: completely blocked
[5]
  binding to low FAR-expressing KB cells relative to high FAR-expressing cells: 30%
[5]; 50 μM FA, dendrimer 30 nM
  effect of free FA on uptake, low-FAR expressing cells: completely blocked
KB cells [1]
  inhibition of cell growth, XTT: not growth-inhibitory
s.c. human KB xenografts
  effect on tumor growth: no therapeutic effect
